Experimental findings from PubChem BioAssay AID1259411 (Chemical Carcinogenesis Research Information System (CCRIS), 2018) are described below.

The source made the active and inactive calls. No rule for the calls is given here.

This data set concerns rodent carcinogenicity bioassays, tumor incidence. In words: CCRIS carcinogenicity studies. A digest of the protocol:
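NCI-built, expert-reviewed records of carcinogenicity and related test outcomes (mutagenicity, tumor promotion/inhibition) compiled from published and report sources, historical span 1985-2011, not updated.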

With `O=C1O[C@@H](CN2CCOCC2)CN1N=Cc1ccc([N+](=O)[O-])o1`, the carcinogen call (Species: RAT, Route: ORAL, Tumor Site: Type of Lesion: LYMPHATIC SYSTEM: LYMPHOBLASTIC LYMPHOMA, MAMMARY GLAND) is “active; positive”.
Turning to `CCn1cc(C(=O)O)c(=O)c2cc3c(cc21)OCO3`, the carcinogen call was “inactive; negative” (Species: MOUSE, Strain/Sex: ICR/FEMALE, Route: ORAL, Dose: 0, 50, 150, 500 PPM IN DIET FOR 78 WK (STUDY DURATION: 78 WK), Dose: 0, 50, 150, 500 PPM IN DIET FOR 78 WK (STUDY DURATION: 78 WK)); “inactive; negative” (Species: MOUSE, Strain/Sex: ICR/MALE, Route: ORAL, Dose: 0, 50, 150, 500 PPM IN DIET FOR 78 WK (STUDY DURATION: 78 WK), Dose: 0, 50, 150, 500 PPM IN DIET FOR 78 WK (STUDY DURATION: 78 WK)); “inactive; negative” (Species: RAT, Strain/Sex: WISTAR/FEMALE, Route: ORAL, Dose: 0, 30, 100, 300, 1000 PPM IN DIET FOR 104 WK (STUDY DURATION: 104 WK), Dose: 0, 30, 100, 300, 1000 PPM IN DIET FOR 104 WK (STUDY DURATION: 104 WK)); “active; positive” (Species: RAT, Strain/Sex: WISTAR/MALE, Route: ORAL, Dose: 0, 30, 100, 300, 1000 PPM IN DIET FOR 104 WK (STUDY DURATION: 104 WK), Dose: 0, 30, 100, 300, 1000 PPM IN DIET FOR 104 WK (STUDY DURATION: 104 WK), Tumor Site: Type of Lesion: TESTIS: BENIGN LEYDIG CELL TUMOR).
Regarding `CC1(C)S[C@@H]2[C@H](NC(=O)COc3ccccc3)C(=O)N2[C@H]1C(=O)O`, the carcinogen call is, setting by setting: (Species: MOUSE, Strain/Sex: B6C3F1/FEMALE, Route: GAVAGE, Dose: 0, 500, 1000 MG/KG IN CORN OIL 5 D/WK FOR 103-104 WK (STUDY DURATION: 106 WK), Dose: 0, 500, 1000 MG/KG IN CORN OIL 5 D/WK FOR 103-104 WK (STUDY DURATION: 106 WK)) “inactive; negative”; (Species: MOUSE, Strain/Sex: B6C3F1/FEMALE, Route: GAVAGE, Dose: 0, 500, 1000 MG/KG IN CORN OIL 5D/WK FOR 104 WK, Dose: 0, 500, 1000 MG/KG IN CORN OIL 5D/WK FOR 104 WK) “inactive; negative”; (Species: MOUSE, Strain/Sex: B6C3F1/MALE, Route: GAVAGE, Dose: 0, 500, 1000 MG/KG IN CORN OIL 5 D/WK FOR 103-104 WK (STUDY DURATION: 106 WK), Dose: 0, 500, 1000 MG/KG IN CORN OIL 5 D/WK FOR 103-104 WK (STUDY DURATION: 106 WK)) “inactive; negative”; (Species: MOUSE, Strain/Sex: B6C3F1/MALE, Route: GAVAGE, Dose: 0, 500, 1000 MG/KG IN CORN OIL 5D/WK FOR 104 WK, Dose: 0, 500, 1000 MG/KG IN CORN OIL 5D/WK FOR 104 WK) “inactive; negative”; (Species: RAT, Strain/Sex: F344/FEMALE, Route: GAVAGE, Dose: 0, 500, 1000 MG/KG IN CORN OIL 5 D/WK FOR 103-104 WK (STUDY DURATION: 106 WK), Dose: 0, 500, 1000 MG/KG IN CORN OIL 5 D/WK FOR 103-104 WK (STUDY DURATION: 106 WK)) “inactive; negative”; (Species: RAT, Strain/Sex: F344/FEMALE, Route: GAVAGE, Dose: 0, 500, 1000 MG/KG IN CORN OIL 5D/WK FOR 103 WK (STUDY DURATION: 104 WK), Dose: 0, 500, 1000 MG/KG IN CORN OIL 5D/WK FOR 103 WK (STUDY DURATION: 104 WK)) “inactive; negative”. In addition, the carcinogen call reads like this: (Species: RAT, Strain/Sex: F344/MALE, Route: GAVAGE, Dose: 0, 500, 1000 MG/KG IN CORN OIL 5 D/WK FOR 103-104 WK (STUDY DURATION: 106 WK), Dose: 0, 500, 1000 MG/KG IN CORN OIL 5 D/WK FOR 103-104 WK (STUDY DURATION: 106 WK)) “inactive; negative”; (Species: RAT, Strain/Sex: F344/MALE, Route: GAVAGE, Dose: 0, 500, 1000 MG/KG IN CORN OIL 5D/WK FOR 103 WK (STUDY DURATION: 104 WK), Dose: 0, 500, 1000 MG/KG IN CORN OIL 5D/WK FOR 103 WK (STUDY DURATION: 104 WK)) “inactive; negative”.
In the case of `COc1cc(-c2ccc(N/N=C3/C(=O)c4c(N)cc(S(=O)(=O)O)cc4C=C3S(=O)(=O)O)c(OC)c2)ccc1N/N=C1/C(=O)c2c(N)cc(S(=O)(=O)O)cc2C=C1S(=O)(=O)O`, the carcinogen call by setting is: (Species: RAT, Strain/Sex: F344/FEMALE, Route: ORAL, Dose: 0, 630, 1250, 2500 PPM IN DRINKING WATER FOR 22 MO (STUDY DURATION: 22 MO), Dose: 0, 630, 1250, 2500 PPM IN DRINKING WATER FOR 22 MO (STUDY DURATION: 22 MO), Tumor Site: Type of Lesion: CLITORAL GLAND: ADENOMA, CARCINOMA, LIVER: NEOPLASTIC NODULE OR HEPATOCELLULAR CARCINOMA, ORAL CAVITY (TONGUE OR PHARYNX, Tumor Site: Type of Lesion: CLITORAL GLAND: ADENOMA, CARCINOMA, LIVER: NEOPLASTIC NODULE OR HEPATOCELLULAR CARCINOMA, ORAL CAVITY (TONGUE OR PHARYNX) “active; positive”; (Species: RAT, Strain/Sex: F344/MALE, Route: ORAL, Dose: 0, 630, 1250, 2500 PPM IN DRINKING WATER FOR 22 MO (STUDY DURATION: 22 MO), Dose: 0, 630, 1250, 2500 PPM IN DRINKING WATER FOR 22 MO (STUDY DURATION: 22 MO), Tumor Site: Type of Lesion: LARGE INTESTINE: ADENOMATOUS POLYP OR ADENOCARCINOMA, LIVER: NEOPLASTIC NODULE OR HEPATOCELLULAR CARCINOMA, ORAL CAVITY, Tumor Site: Type of Lesion: LARGE INTESTINE: ADENOMATOUS POLYP OR ADENOCARCINOMA, LIVER: NEOPLASTIC NODULE OR HEPATOCELLULAR CARCINOMA, ORAL CAVITY) “active; positive”.
For `O=C(O)CC[N+](=O)[O-]`, the carcinogen call by setting is: (Species: MOUSE, Strain/Sex: B6C3F1/FEMALE, Route: GAVAGE, Dose: 0, 0.375, 0.75 MG/ANIMAL/DAY FOR 104 WK (STUDY DURATION: 104-105 WK), Dose: 0, 0.375, 0.75 MG/ANIMAL/DAY FOR 104 WK (STUDY DURATION: 104-105 WK)) “inactive; negative”; (Species: MOUSE, Strain/Sex: B6C3F1/MALE, Route: GAVAGE, Dose: 0, 0.375, 0.75 MG/ANIMAL/DAY FOR 104 WK (STUDY DURATION: 104-105 WK), Dose: 0, 0.375, 0.75 MG/ANIMAL/DAY FOR 104 WK (STUDY DURATION: 104-105 WK)) “inactive; negative”; (Species: RAT, Strain/Sex: F344/FEMALE, Route: GAVAGE, Dose: 0, 0.6, 1.2 MG/ANIMAL/DAY FOR 110 WK (STUDY DURATION: 111 WK), Dose: 0, 0.6, 1.2 MG/ANIMAL/DAY FOR 110 WK (STUDY DURATION: 111 WK)) “inactive; negative”; (Species: RAT, Strain/Sex: F344/MALE, Route: GAVAGE, Dose: 0, 0.425, 0.85 MG/ANIMAL/DAY FOR 110 WK (STUDY DURATION: 111 WK), Dose: 0, 0.425, 0.85 MG/ANIMAL/DAY FOR 110 WK (STUDY DURATION: 111 WK), Tumor Site: Type of Lesion: LIVER: HEPATOCELLULAR NEOPLASM, PANCREAS: ISLET CELL ADENOMA) “equivocal”.
As to `CCCCC/C=N/N(C)C=O`, the carcinogen call was “active; positive” (Species: MOUSE, Strain/Sex: SWISS/FEMALE, Route: GAVAGE, Dose: 0, 50, 100 UG/G/BW IN 0.01 ML OF PROPYLENE GLYCOL 1/WK FOR 52 WK (STUDY DURATION: 130 WK), Dose: 0, 50, 100 UG/G/BW IN 0.01 ML OF PROPYLENE GLYCOL 1/WK FOR 52 WK (STUDY DURATION: 130 WK), Tumor Site: Type of Lesion: LUNG: ADENOMA OR ADENOCARCINOMA, LIVER: HEPATOMA OR CARCINOMA) and “active; positive” (Species: MOUSE, Strain/Sex: SWISS/MALE, Route: GAVAGE, Dose: 0, 50, 100 UG/G/BW IN 0.01 ML OF PROPYLENE GLYCOL 1/WK FOR 52 WK (STUDY DURATION: 130 WK), Dose: 0, 50, 100 UG/G/BW IN 0.01 ML OF PROPYLENE GLYCOL 1/WK FOR 52 WK (STUDY DURATION: 130 WK), Tumor Site: Type of Lesion: LUNG: ADENOMA AND ADENOCARCINOMA, PREPUTIAL GLAND: SQUAMOUS CELL PAPILLOMA OR SQUAMOUS CELL CARCINOMA OR ADENOMA).
On to `CCOC(=O)N(C)N=O`, for which the carcinogen call is “active; positive” (Species: MOUSE, Route: INTRAPERITONEAL, Tumor Site: Type of Lesion: LUNG); “active; positive” (Species: MOUSE, Route: ORAL, Tumor Site: Type of Lesion: ESOPHAGUS, FORESTOMACH); “active; positive” (Species: RAT, Route: INTRAVENOUS, Tumor Site: Type of Lesion: LUNG); “active; positive” (Species: RAT, Route: ORAL, Tumor Site: Type of Lesion: FORESTOMACH); “active; positive” (Species: RAT, Strain/Sex: F344/FEMALE, Route: GAVAGE, Dose: 0, 0.35, 1.4 MG/ANIMAL IN CORN OIL 1/WK FOR 20 WK (STUDY DURATION: 114 WK), Dose: 0, 0.35, 1.4 MG/ANIMAL IN CORN OIL 1/WK FOR 20 WK (STUDY DURATION: 114 WK), Tumor Site: Type of Lesion: FORESTOMACH: CARCINOMA, ESOPHAGUS: CARCINOMA, PAPILLOMA); “active; positive” (Species: RAT, Strain/Sex: F344/MALE, Route: ORAL, Dose: 20 PPM IN DRINKING WATER FOR 48 WK (STUDY DURATION: 104 WK), Tumor Site: Type of Lesion: FORESTOMACH: PAPILLOMA, SQUAMOUS CELL CARCINOMA).
